Experimental data: US5747660A, “Nucleic acid encoding prostaglandin F2α receptor regulatory protein” (priority 1995, dated 1998)

Legend:
[1] = test system: prostaglandin F2α receptor (FP); assay: [3H]PGF2α specific binding to COS cells cotransfected with FP cDNA and a test cDNA construct; format: cell-based, rat, mouse; settings: COS cells cotransfected with FP + the named DNA; FP alone = 100
[2] = test system: prostaglandin F2α receptor (FP); assay: Cotransfection of a third construct along with FP and FPRP, [3H]PGF2α binding; format: cell-based; settings: FP + FPRP + the named third construct; FP + pSG5 = 100
Description: Therefore, a strategy based on cotransfection of a third construct (along with FP and FPRP) was pursued. These third party constructs included ones coding for the protease inhibitors alpha-l trypsin inhibitor and crmA, an inhibitor of cell death, bcl2, and few nonspecific control molecules including the vitamin D receptor, a secreted immunoglobulin molecule, and the empty parent vector pSG5 only. All groups and treatments were compared with control treatment of FP+pSG5 vs. FP+FPRP.

[3] = test system: prostaglandin F2α receptor (FP); assay: Effect of intracellular messenger altering agents on [3H]PGF2α binding and on FPRP inhibition of it; format: cell-based; settings: for % Control [^3 H]PGF2α Binding, FP + FPRP: FP + FPRP transfected cells treated with the agent; for % Control [^3 H]PGF2α Binding, FP + pSG5: FP + pSG5 transfected cells treated with the agent; for % Inhibition (FPRP inhibition of [^3 H]PGF2α binding): in presence of the agent at the concentration/time given; for effect of agent on FPRP inhibition of [^3 H]PGF2α binding (words): FP + FPRP transfected cells pretreated with the agent; for effect of agent on basal [^3 H]PGF2α binding: FP transfected cells pretreated with the agent
Procedure: In a third experiment, transfected cells were treated for 30 min with exposure to the following: phorbol 12-myristate 13-acetate 10^-8 M, prostaglandin E1, 10^-7 M, A23187 10^-6 M, okadaic acid 10^-6 M, or 8-Br-cAMP 10^-5 M (Table 4).
The effect of brefeldin A (3 μg/ml, 2 hr), chloroquine (100 μM, 6 hr) and tunicamysin (2.5 μg/ml, 20 hr) was determined.

[4] = target: prostaglandin F2α receptor (FP), cDNA construct whose species the place does not tell
[5] = target: rat prostaglandin F2α receptor regulatory protein (FPRP) (rat)

1 Trypsin Inhibitor: protease inhibitor alpha-l trypsin inhibitor, cotransfected construct
% CONTROL, [^3 H]PGF2α specific binding [1]: 141 ± 3%
% Control [^3 H]PGF2α Binding [2]: 38 ± 3%

Nc1ncnc2c1nc(Br)n2[C@@H]1O[C@@H]2COP(=O)(O)O[C@H]2[C@H]1O [8-Br-cAMP]
% Control [^3 H]PGF2α Binding, FP + FPRP [3]: 52 ± 3%
% Control [^3 H]PGF2α Binding, FP + pSG5 [3]: 94 ± 6%
% Inhibition (FPRP inhibition of [^3 H]PGF2α binding) [3]: 45%

C[C@H]1CCC/C=C/[C@@H]2C[C@H](O)C[C@H]2[C@H](O)/C=C/C(=O)O1 [Brefeldin A, brefeldin A]
effect of agent on FPRP inhibition of [^3 H]PGF2α binding (words) [3]: no effect
effect of agent on FPRP inhibition of [^3 H]PGF2α binding (words) ([3]; listed as brefeldin A): little or no effect
% Control [^3 H]PGF2α Binding, FP + FPRP [3]: 27 ± 3%
% Control [^3 H]PGF2α Binding, FP + pSG5 [3]: 91 ± 3%
effect of agent on basal [^3 H]PGF2α binding [3]: little or no effect
% Inhibition (FPRP inhibition of [^3 H]PGF2α binding) [3]: 70%

CNc1ccc2oc(C[C@H]3O[C@@]4(CC[C@H]3C)O[C@H]([C@H](C)C(=O)c3ccc[nH]3)[C@H](C)C[C@H]4C)nc2c1C(=O)O [Calcium ionophore A23187]
% Control [^3 H]PGF2α Binding, FP + FPRP [3]: 51 ± 6%
% Control [^3 H]PGF2α Binding, FP + pSG5 [3]: 102 ± 6%
% Inhibition (FPRP inhibition of [^3 H]PGF2α binding) [3]: 50%

CCN(CC)CCCC(C)Nc1ccnc2cc(Cl)ccc12 (stereo not drawn) [Chloroquine, chloroquine]
effect of agent on FPRP inhibition of [^3 H]PGF2α binding (words) [3]: little or no effect
% Control [^3 H]PGF2α Binding, FP + FPRP [3]: 37 ± 3%
% Control [^3 H]PGF2α Binding, FP + pSG5 [3]: 91 ± 3%
effect of agent on basal [^3 H]PGF2α binding [3]: little or no effect
% Inhibition (FPRP inhibition of [^3 H]PGF2α binding) [3]: 59%

C=C1[C@@H](O)[C@@H]2O[C@]3(CC[C@H](/C=C/[C@@H](C)[C@@H]4CC(C)=C[C@@]5(O[C@H](C[C@@](C)(O)C(=O)O)CC[C@H]5O)O4)O3)CC[C@H]2O[C@@H]1[C@@H](O)C[C@H](C)[C@H]1O[C@@]2(CCCCO2)CC[C@H]1C [Okadaic acid, okadaic acid]
% Control [^3 H]PGF2α Binding, FP + FPRP [3]: 45 ± 3%
% Control [^3 H]PGF2α Binding, FP + pSG5 [3]: 94 ± 3%
% Inhibition (FPRP inhibition of [^3 H]PGF2α binding) [3]: 52%

CCCCC[C@H](O)/C=C/[C@H]1[C@H](O)CC(=O)[C@@H]1CCCCCCC(=O)O [PGE1, prostaglandin E1]
% Control [^3 H]PGF2α Binding, FP + FPRP [3]: 51 ± 3%
% Control [^3 H]PGF2α Binding, FP + pSG5 [3]: 100 ± 3%
% Inhibition (FPRP inhibition of [^3 H]PGF2α binding) [3]: 49%

CCCCCCCCCCCCCC(=O)OC1C(C)C2(O)C(C=C(CO)CC3(O)C(=O)C(C)=CC32)C2C(C)(C)C12OC(C)=O (stereo not drawn) [Phorbol 12-myristate 13-acetate, phorbol 12-myristate 13-acetate]
% Control [^3 H]PGF2α Binding, FP + FPRP [3]: 54 ± 3%
% Control [^3 H]PGF2α Binding, FP + pSG5 [3]: 105 ± 7%
% Inhibition (FPRP inhibition of [^3 H]PGF2α binding) [3]: 50%

Progesterone Receptor
% control ^3 H!PGF2α specific binding, co-transfection [4]: 103 % control

Prolactin Receptor
% control ^3 H!PGF2α specific binding, co-transfection [4]: 130 % control

TGN38
% control ^3 H!PGF2α specific binding, co-transfection [4]: 135 % control

Vitamin D receptor
% control ^3 H!PGF2α specific binding, co-transfection [4]: 131 % control
% control ^3 H!PGF2α binding, third construct co-transfected with FP and FPRP [5]: 36 % control

Vitamin D receptor: over-expressed control protein, cotransfected construct
% CONTROL, [^3 H]PGF2α specific binding [1]: 131 ± 7%
% Control [^3 H]PGF2α Binding [2]: 36 ± 3%

alpha-1 trypsin inhibitor
% control ^3 H!PGF2α specific binding, co-transfection [4]: 141 % control
% control ^3 H!PGF2α binding, third construct co-transfected with FP and FPRP [5]: 38 % control

bcl-2
% control ^3 H!PGF2α specific binding, co-transfection [4]: 84 % control
% control ^3 H!PGF2α binding, third construct co-transfected with FP and FPRP [5]: 30 % control

bcl-2: an inhibitor of cell death, cotransfected construct
% CONTROL, [^3 H]PGF2α specific binding [1]: 84 ± 5%
% Control [^3 H]PGF2α Binding [2]: 30 ± 3%

crmA
% control ^3 H!PGF2α specific binding, co-transfection [4]: 141 % control
% control ^3 H!PGF2α binding, third construct co-transfected with FP and FPRP [5]: 29 % control

tunicamycin
effect of agent on FPRP inhibition of [^3 H]PGF2α binding (words) [3]: approximately the same extent
% Control [^3 H]PGF2α Binding, FP + FPRP [3]: 23 ± 3%
% Control [^3 H]PGF2α Binding, FP + pSG5 [3]: 46 ± 3%
effect of agent on basal [^3 H]PGF2α binding [3]: decreased
% Inhibition (FPRP inhibition of [^3 H]PGF2α binding) [3]: 50%

βPDGF Receptor
% control ^3 H!PGF2α specific binding, co-transfection [4]: 90 % control

B1: Progesterone Receptor: over-expressed control protein, cotransfected construct (protein, UniProt P06401 1-933, looked up)
Progesterone receptor: MTELKAKGPRAPHVAGGPPSPEVGSPLLCRPAAGPFPGSQTSDTLPEVSAIPISLDGLLFPRPCQGQDPSDEKTQDQQSLSDVEGAYSRAEATRGAGGSSSSPPEKDSGLLDSVLDTLLAPSGPGQSQPSPPACEVTSSWCLFGPELPEDPPAAPATQRVLSPLMSRSGCKVGDSSGTAAAHKVLPRGLSPARQLLLPASESPHWSGAPVKPSPQAAAVEVEEEDGSESEESAGPLLKGKPRALGGAAAGGGAAAVPPGAAAGGVALVPKEDSRFSAPRVALVEQDAPMAPGRSPLATTVMDFIHVPILPLNHALLAARTRQLLEDESYDGGAGAASAFAPPRSSPCASSTPVAVGDFPDCAYPPDAEPKDDAYPLYSDFQPPALKIKEEEEGAEASARSPRSYLVAGANPAAFPDFPLGPPPPLPPRATPSRPGEAAVTAAPASASVSSASSSGSTLECILYKAEGAPPQQGPFAPPPCKAPGASGCLLPRDGLPSTSASAAAAGAAPALYPALGLNGLPQLGYQAAVLKEGLPQVYPPYLNYLRPDSEASQSPQYSFESLPQKICLICGDEASGCHYGVLTCGSCKVFFKRAMEGQHNYLCAGRNDCIVDKIRRKNCPACRLRKCCQAGMVLGGRKFKKFNKVRVVRALDAVALPQPVGVPNESQALSQRFTFSPGQDIQLIPPLINLLMSIEPDVIYAGHDNTKPDTSSSLLTSLNQLGERQLLSVVKWSKSLPGFRNLHIDDQITLIQYSWMSLMVFGLGWRSYKHVSGQMLYFAPDLILNEQRMKESSFYSLCLTMWQIPQEFVKLQVSQEEFLCMKVLLLLNTIPLEGLRSQTQFEEMRSSYIRELIKAIGLRQKGVVSSSQRFYQLTKLLDNLHDLVKQLHLYCLNTFIQSRALSVEFPEMMSEVIAAQLPKILAGMVKPLLFHKK
% CONTROL, [^3 H]PGF2α specific binding [1]: 103 ± 5%

B2: Prolactin Receptor: over-expressed control protein, cotransfected construct (protein, UniProt P16471 25-622, looked up)
Prolactin receptor: QLPPGKPEIFKCRSPNKETFTCWWRPGTDGGLPTNYSLTYHREGETLMHECPDYITGGPNSCHFGKQYTSMWRTYIMMVNATNQMGSSFSDELYVDVTYIVQPDPPLELAVEVKQPEDRKPYLWIKWSPPTLIDLKTGWFTLLYEIRLKPEKAAEWEIHFAGQQTEFKILSLHPGQKYLVQVRCKPDHGYWSAWSPATFIQIPSDFTMNDTTVWISVAVLSAVICLIIVWAVALKGYSMVTCIFPPVPGPKIKGFDAHLLEKGKSEELLSALGCQDFPPTSDYEDLLVEYLEVDDSEDQHLMSVHSKEHPSQGMKPTYLDPDTDSGRGSCDSPSLLSEKCEEPQANPSTFYDPEVIEKPENPETTHTWDPQCISMEGKIPYFHAGGSKCSTWPLPQPSQHNPRSSYHNITDVCELAVGPAGAPATLLNEAGKDALKSSQTIKSREEGKATQQREVESFHSETDQDTPWLLPQEKTPFGSAKPLDYVEIHKVNKDGALSLLPKQRENSGKPKKPGTPENNKEYAKVSGVMDNNILVLVPDPHAKNVACFEESAKEAPPSLEQNQAEKALANFTATSSKCRLQLGGLDYLDPACFTHSFH
modifications: over-expressed construct
% CONTROL, [^3 H]PGF2α specific binding [1]: 130 ± 7%
